Reference: US7408048B2, “Mammalian grainyhead transcription factors” (Melbourne Health, priority 2002, dated 2008)
Marks after values point to notes of the source that are not given here.

B1: p49 mgr: human mammalian Grainyhead isoform p49, SEQ ID NO:2; full length fused to GAL4 DNA binding domain (protein)
chain: MASLWESPQQCIILSPLSGWWFSIGISILTSSALVLKPQMLKGELQTRPSQRPSRKAFRRNNFEYTLEASKSLRQKPGDSTMTYLNKGQFYPITLKEVSSSEGIHHPISKVRSVIMVVFAEDKSREDQLRHWKYWHSRQHTAKQRCIDIADYKESFNTISNIEEIAYNAISFTWDINDEAKVFISVNCLSTDFSSQKGVKGLPLNIQVDTYSYNNRSNKPVHRAYCQIKVFCDKGAERKIRDEERKQSKRKVSDVKVPLLPSHKRMDITVFKPFIDLDTQPVLFIPDVHFANLQRGTHVLPIASEELEGEGSVLKRGPYGTEDDFAVPPSTKLARIEEPKRVLLYVRKESEEVFDALMLKTPSLKGLMEAISDKYDVPHDKIGKIFKKCKKGILVNMDDNIVKHYSNEDT
modifications: GAL4 DNA-binding domain fusion; human
B2: bom: brother of mammalian grainyhead; region comparable to first 93 amino acids of p70 MGR fused to GAL4 DNA binding domain (protein)
chain: MSQESDNNKRLVALVPMPSDPPFNTRRAYTSEDEAWKSYLENPLTAATKAMMSINGDEDSAAALGLLYDYYKVPRDKRLLSVSKASDSQEDQEKRNCLGTSEAQSNLSGGENRVQVLKTVPVNLSLNQDHLENSKREQYSISFPESSAIIPVSGITVVKAEDFTPVFMAPPVHYPRGDGEEQRVVIFEQTQYDVPSLATHSAYLKDDQRSTPDSTYSESFKDAATEKFRSASVGAEEYMYDQTSSGTFQYTLEATKSLRQKQGEGPMTYLNKGQFYAITLSETGDNKCFRHPISKVRSVVMVVFSEDKNRDEQLKYWKYWHSRQHTAKQRVLDIADYKESFNTIGNIEEIAYNAVSFTWDVNEEAKIFITVNCLSTDFSSQKGVKGLPLMIQIDTYSYNNRSNKPIHRAYCQIKVFCDKGAERKIRDEERKQNRKKGKGQASQTQCNSSSDGKLAAIPLQKKSDITYFKTMPDLHSQPVLFIPDVHFANLQRTGQVYYNTDDEREGGSVLVKRMFRPMEEEFGPVPSKQMKEEGTKRVLLYVRKETDDVFDALMLKSPTVKGLMEAISEKYGLPVEKIAKLYKKSKKGILVNMDDNIIEHYSNEDTFILNMESMVEGFKVTLMEI
modifications: human

What was measured:
[1] = system: five concatamerized GAL4 DNA binding sites upstream of the CAT gene in 293T cell line; assay: GAL4 DNA binding domain fusion / CAT reporter co-transfection; format: cell-based; details: fused to GAL4 DNA binding domain, human 293T cell line
Source text: Although significant sequence homology exists between grh and the shorter mgr isoforms and p70 mgr, the isoleucine rich transcriptional activation domain identified in the fly protein is not conserved. […] In view of the high degree of conservation of the first three coding exons of p70 mgr and bom, it was postulated that this could be the functional domain responsible for activation. To address this, the cDNA fragment encoding the first 93 amino acids of human p70 MGR (encoded by the first three exons) was subcloned in frame with the GAL4 DNA binding domain in a mammalian expression vector. […] These plasmids were co-transfected into the human 293T cell line with a reporter plasmid containing five concatamerized GAL4 DNA binding sites upstream of the chloramphenicol acetyltransferase (CAT) gene. The vector containing only the GAL4 DNA-BD or containing the VP16 activation domain fused to the GAL DNA-BD served as the negative and positive controls, respectively.

[2] = system: Drosophila PCNA promoter; assay: EMSA with JEG-3 nuclear extract, PCNA promoter probe; format: binding; details: anti-MGR antisera
Source text: (§1) FIG. 2 is a photographic representation showing that p70 MGR binds to Drosophila gene regulatory sequences which bind grh. (A) p70 MGR binds to the Drosophila PCNA promoter. Nuclear extract from the JEG-3 cell line was studied in an EMSA with a PCNA promoter probe in the presence and absence of anti-MGR specific antisera. Antisera 611 was raised against peptides common to the p70 and p49 MGR proteins in the dimerization domain and antisera 67 was raised against unique peptides in the NH2-terminal domain of p70 MGR. The migration of the MGR complex is shown in arrows. (B) p70 MGR binds to the Drosophila dopo decarboxylase promoter. Experimental conditions were as described for (A).
(§2) To determine the extent of the functional homology between GRH and MGR, it was initially examined whether the mammalian protein could bind to the well-characterized binding sites for the Drosophila factor in the Dopa decarboxylase and PCNA gene regulatory regions (Uv et al., Mol. Cell. Biol. 17: 6727-6735, 1997; Hayashi et al., J. Biol. Chem. 274: 35080-35088, 1999). Oligonucleotide probes encompassing these sites were incubated with nuclear extract from the human placental cell line JEG-3, which expresses both isoforms of MGR at RNA and protein level and analyzed in an electrophoretic mobility shift assay (EMSA). […]

[3] = system: Drosophila dopa decarboxylase promoter; assay: EMSA with JEG-3 nuclear extract, Dopa decarboxylase promoter probe; format: binding; details: anti-MGR antisera
Source text: as §1, §2

[4] = system: human En-1 promoter; assay: EMSA competition with JEG-3 nuclear extract, En-1 promoter probe; format: binding; details: cold En-1 probe competing with Ddc probe
Source text: (§3) FIG. 3 are representations showing that p70 MGR binds to and transactivates the human En-1promoter. (A) Identifcation of a grh consensus DNA binding site in the human En-1promoter. The consensus sequence for grh DNA binding (SEQ ID NO: 50) compiled from an alignment of the Drosophila Ultrabithorax, Dopa decarboxylase and fushi tarazu promoters was compared with the sequence of the proximal human En-1 promoter (SEQ ID NO: 49) and the Drosophilaengrailed promoter (SEQ ID NO: 48). The closed bracket indicates the extend of the grainyhead binding site in the engrailed promoter as defined by DNAseI footprinting. (B) Human p70 MGR binds 5 to the human En-1 promoter. Nuclear extract from the JEG-3 cell line was studied in an EMSA with a Ddc promoter probe in the presence of pre-immune sera (lane 1), anti-MGR specific antisera (detailed in legend to FIG. 2) (lane 2) or cold competitor DNA (lanes 3-5). A 50-fold excess of the Ddc probe was used in lane 3 and a 10- and 20-fold excess of a human En-1promoter probe in lanes 4 and 5, respectively. The migration of the MGR/DNA complex is shown by arrows. (C) Human p70 MGR transactivates the En-1promoter. […]

[5] = system: human En-1 promoter; assay: En-1 promoter / luciferase reporter transfection in COS cells; format: cell-based; details: p70 MGR expression vector vs empty vector, MGR null cell line COS
Source text: as §3

[6] = system: GRHL-3^−/− mice; format: in vivo, mouse; details: for Observed NTDs: GRHL-3^−/− embryos from GRHL-3^+/− intercrosses, given to pregnant females, embryos harvested E14.5; for Predicted NTDs: predicted from the response of ct/ct embryos; for Mean litter size / frequency of resorptions: mouse, in vivo
Procedure: GRHL-3^+/− mice were inter-crossed and folate, inositol or PBS placebo was administered to pregnant females as previously described. Embryos were harvested on E14.5 and genotyped and examined morphologically. […] The results were analysed statistically by the one-sided binomial probability test. NTDs in the curly tail mice are resistant to folate administered in early gestation. […] The effects of folate and inositol administration on pregnant GRHL-3^+/− mice previously mated with GRHL-3^+/− males was examined (Table 6). As expected, no rescue of spina bifida in GRHL-3^−/− embryos with placebo or folate treatment was observed. […] Although the numbers of embryos examined was small, the result was highly significant (p<0.001) given the 70% reduction in the incidence of spina bifida in inositol-treated ct/ct embryos. These findings indicate that GRHL-3 expression is essential for inositol-mediated rescue of folate-resistant NTDs.

[7] = system: curly tail (ct/ct) mice; details: cited from earlier work

Molecule | transcriptional activation of the CAT gene [1] | Observed NTDs [6] | Predicted NTDs ([6]; GRHL-3^−/− embryos) [%] | Mean litter size [6] | frequency of resorptions [6] | also measured
p70 MGR: human mammalian Grainyhead isoform p70, SEQ ID NO:4; first 93 amino acids fused to GAL4 DNA binding domain in b240 | transcriptional activation of the CAT gene was observed |  |  |  |  | binding to PCNA promoter probe [2]: binds; binding to dopa decarboxylase promoter probe [3]: binds; binding to En-1 promoter [4]: binds; transcriptional activity of the En-1 promoter [5]: dramatically enhanced
O[C@H]1[C@H](O)[C@@H](O)[C@H](O)[C@@H](O)[C@H]1O [Inositol, inositol] |  | 100%* | 30 | did not differ significantly | did not differ significantly | rescue of spina bifida (incidence, severity) ([6]; GRHL-3^−/− embryos, treatment of pregnant GRHL-3^+/− mice): neither the incidence, nor severity of the spina bifida in the GRHL-3^−/− embryos was alleviated; effect on NTDs / incidence of spina bifida ([7]; curly tail mice, administered in early gestation / pregnancy): marked reduction; reduction in the incidence of spina bifida ([7]; inositol-treated ct/ct embryos): 70%
VP16 | transcriptional activation of the CAT gene was observed |  |  |  |  | 
Nc1nc2ncc(CNc3ccc(C(=O)N[C@@H](CCC(=O)O)C(=O)O)cc3)nc2c(=O)[nH]1 [Folate, folate] |  | 100% | 100 | did not differ significantly | did not differ significantly | 
B1 | No activation was observed |  |  |  |  | 
B2 | transcriptional activation of the CAT gene was observed |  |  |  |  | 
